Assay results published in paper PMC11112612, “Sulfonylureas exert antidiabetic action on adipocytes by inhibition of PPARγ serine 273 phosphorylation” (Molecular Metabolism, 2024).

Assays:
[1] = molecular target: T1, peroxisome proliferator-activated receptor γ (PPARγ) (Homo sapiens, UniProt P37231); test: in vitro CDK5/P35 kinase assay on PPARγ LBD (ADP-Glo, phospho-Ser-273 Western blot); histone H1 phosphorylation not inhibited; PPRE luciferase in HEK293T; type: biochemical
T1 construct: gene PPARG; recombinant PPARγ LBD

[2] = molecular target: T1, peroxisome proliferator-activated receptor γ (PPARγ); test: in vitro CDK5/P35 kinase assay on PPARγ LBD (ADP-Glo, phospho-Ser-273 Western blot); histone H1 phosphorylation not inhibited; weak PPRE luciferase activation; type: biochemical

T1 sequence (P37231 231-505 limits assumed): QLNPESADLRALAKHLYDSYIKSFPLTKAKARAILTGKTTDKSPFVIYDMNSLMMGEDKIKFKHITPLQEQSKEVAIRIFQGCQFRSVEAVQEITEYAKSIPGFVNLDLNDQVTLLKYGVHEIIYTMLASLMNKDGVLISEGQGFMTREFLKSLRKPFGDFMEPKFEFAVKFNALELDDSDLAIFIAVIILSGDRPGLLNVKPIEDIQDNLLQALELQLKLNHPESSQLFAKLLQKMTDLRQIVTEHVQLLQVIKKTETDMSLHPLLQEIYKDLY
T1 sequence (Q00535 whole entry partner, the tested form may be a part): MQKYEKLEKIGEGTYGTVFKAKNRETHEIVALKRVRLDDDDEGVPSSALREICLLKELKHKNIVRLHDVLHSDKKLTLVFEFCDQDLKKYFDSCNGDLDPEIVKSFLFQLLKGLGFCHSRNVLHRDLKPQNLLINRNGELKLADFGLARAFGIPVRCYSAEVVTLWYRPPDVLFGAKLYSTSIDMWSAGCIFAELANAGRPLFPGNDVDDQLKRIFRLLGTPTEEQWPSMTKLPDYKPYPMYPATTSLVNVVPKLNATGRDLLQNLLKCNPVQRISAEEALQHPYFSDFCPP
T1 sequence (Q15078 2-307 partner): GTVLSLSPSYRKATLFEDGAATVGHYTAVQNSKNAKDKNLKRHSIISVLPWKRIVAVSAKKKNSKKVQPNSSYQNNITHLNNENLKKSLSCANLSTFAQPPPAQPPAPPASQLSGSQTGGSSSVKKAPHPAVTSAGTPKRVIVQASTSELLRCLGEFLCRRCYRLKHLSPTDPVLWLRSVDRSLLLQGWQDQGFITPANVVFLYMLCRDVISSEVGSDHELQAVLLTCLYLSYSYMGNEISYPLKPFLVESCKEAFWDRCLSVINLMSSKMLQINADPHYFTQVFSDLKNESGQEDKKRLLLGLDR

With `COc1ccc(Cl)cc1C(=O)NCCc1ccc(S(=O)(=O)NC(=O)NC2CCCCC2)cc1` [glibenclamide] the IC50 [1] was 25 nM.
`CCC1=C(C)CN(C(=O)NCCc2ccc(S(=O)(=O)NC(=O)N[C@H]3CC[C@H](C)CC3)cc2)C1=O` [glimepiride] was tested, and the IC50 [2] was 378 nM.
